pIC50: −log10 of the molar value.
These compounds were tested on MV4-11 cells (assay: Inhibition of MV4-11 cell proliferation (CellTiterGlo, 72 h)). Settings: Homo sapiens; 72 h growth inhibition.
Type: cell-based
Method in brief: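 MV4-11 (FLT3-ITD) cells, 10,000/well in RPMI/10% FBS with 1 ng/ml GM-CSF, treated 72 h at 37 °C; some runs in 1:1 medium/human plasma. Growth read as ATP luminescence; 100% inhibition = Day 0 RLU, 0% = DMSO at Day 3. IC50 from sigmoidal variable-slope fit of triplicates.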

In order of rising pIC50:
1. COc1cc2ncnc(N3CCC(N(C)C(=O)Nc4ccc(OC(C)C)cc4)C3)c2cc1OC (centres unmarked) [Compound 36, 1-[1-(6,7-Dimethoxy-quinazolin-4-yl)-pyrrolidin-3-yl]-3-(4-isopropoxy-phenyl)-1-methyl-urea]  5.50
2. COc1cc2ncnc(N3CCC(C(=O)Nc4ccc(OC(C)C)cc4)CC3)c2cc1OC [Compound 23, 1-(6,7-Dimethoxy-quinazolin-4-yl)-piperidine-4-carboxylic acid (4-isopropoxy-phenyl)-amide]  5.70
3. COc1cc2ncc(C#N)c(N3CCC(NC(=O)Nc4ccc(C(C)C)cc4)C3)c2cc1OC (centres unmarked) [Compound 26, 1-[1-(3-Cyano-6,7-dimethoxy-quinolin-4-yl)-pyrrolidin-3-yl]-3-(4-isopropyl-phenyl)-urea]  5.72
4. COc1cc2ncnc(N3CCC(NC(=O)Cc4ccc(C(C)C)cc4)C3)c2cc1OC (centres unmarked) [Compound 35, N-[1-(6,7-Dimethoxy-quinazolin-4-yl)-pyrrolidin-3-yl]-2-(4-isopropyl-phenyl)-acetamide]  5.72
5. COc1cc2ncnc(N3CCC(NC(=O)Nc4ccc(OC(C)C)cc4)C3)c2cc1OC (centres unmarked) [Compound 8, 1-[1-(6,7-Dimethoxy-quinazolin-4-yl)-pyrrolidin-3-yl]-3-(4-isopropoxy-phenyl)-urea]  5.73
6. COc1cc2ncc(C#N)c(N3CCC(NC(=O)Nc4ccc(OC(C)C)cc4)C3)c2cc1OC (centres unmarked) [Compound 29, 1-[1-(3-Cyano-6,7-dimethoxy-quinolin-4-yl)-pyrrolidin-3-yl]-3-(4-isopropoxy-phenyl)-urea]  5.77
7. COc1cc2ncnc(N3CCCC(OC(=O)Nc4ccc(C(C)C)cc4)C3)c2cc1OC (centres unmarked) [Compound 31, (4-Isopropyl-phenyl)-carbamic acid 1-[1-(6,7-dimethoxy-quinazolin-4-yl)-piperidin-3-yl]ester]  5.77
8. COc1cc2ncnc(N3CCCC(NC(=O)Nc4ccc(C(C)C)cc4)C3)c2cc1OC (centres unmarked) [Compound 28, 1-[1-(6,7-Dimethoxy-quinazolin-4-yl)-piperidin-3-yl]-3-(4-isopropyl-phenyl)-urea]  5.82
9. COc1cc2ncc(C#N)c(N3CCC(OC(=O)Nc4ccc(C(C)C)cc4)C3)c2cc1OC (centres unmarked) [Compound 37, (4-Isopropyl-phenyl)-carbamic acid 1-(3-cyano-6,7-dimethoxy-quinolin-4-yl)-pyrrolidin-3-yl ester]  5.82
10. COc1cc2ncc(C#N)c(N3CCC(OC(=O)Nc4ccc(OC(C)C)cc4)C3)c2cc1OC (centres unmarked) [Compound 32, (4-Isopropoxy-phenyl)-carbamic acid 1-(3-cyano-6,7-dimethoxy-quinolin-4-yl)-pyrrolidin-3-yl ester]  5.85
11. COc1cc2ncnc(N3CCC(N(C)C(=O)Nc4ccc(C(C)C)cc4)C3)c2cc1OC (centres unmarked) [Compound 19, 1-[1-(6,7-Dimethoxy-quinazolin-4-yl)-pyrrolidin-3-yl]-3-(4-isopropyl-phenyl)-1-methyl-urea]  5.86
12. COc1cc2ncnc(N3CCC(CNC(=O)Nc4ccc(C(C)C)cc4)CC3)c2cc1OC [Compound 18, 1-[1-(6,7-Dimethoxy-quinazolin-4-yl)-piperidin-4-ylmethyl]-3-(4-isopropyl-phenyl)-urea]  5.89
13. COc1cc2ncnc(N3CCC(NC(=O)Nc4ccc(C(C)C)cc4)C3)c2cc1OC (centres unmarked) [Compound 7, 1-[1-(6,7-Dimethoxy-quinazolin-4-yl)-pyrrolidin-3-yl]-3-(4-isopropyl-phenyl)-urea]  6.04
14. COc1cc2ncnc(N3CCC(OC(=O)Nc4ccc(OC(C)C)cc4)C3)c2cc1OC (centres unmarked) [Compound 15, (4-Isopropoxy-phenyl)-carbamic acid 1-(6,7-dimethoxy-quinazolin-4-yl)-pyrrolidin-3-yl ester]  6.06
15. COc1cc2ncnc(N3CCC(C(=O)Nc4ccc(C(C)C)cc4)CC3)c2cc1OC [Compound 13, 1-(6,7-Dimethoxy-quinazolin-4-yl)-piperidine-4-carboxylic acid (4-isopropyl-phenyl)-amide]  6.07
16. COc1cc2ncnc(N3CCC(OC(=O)Nc4ccc(OC(C)C)cc4)CC3)c2cc1OC [Compound 3, (4-Isopropoxy-phenyl)-carbamic acid 1-(6,7-dimethoxy-quinazolin-4-yl)-piperidin-4-yl ester]  6.33
17. COc1cc2ncnc(N3CCCCC3COC(=O)Nc3ccc(C(C)C)cc3)c2cc1OC (centres unmarked) [Compound 33, (4-Isopropyl-phenyl)-carbamic acid 1-(6,7-dimethoxy-quinazolin-4-yl)-piperidin-2-ylmethyl ester]  6.46
18. CC(C)c1ccc(NC(=O)NC2CCN(c3ncnc4ccccc34)C2)cc1 (centres unmarked) [Compound 16, 1-(4-Isopropyl-phenyl)-3-(1-quinazolin-4-yl-pyrrolidin-3-yl)urea]  6.56
19. CC(C)c1ccc(NC(=O)OC2CCN(c3ncnc4ccc(I)cc34)C2)cc1 (centres unmarked) [Compound 20, (4-Isopropyl-phenyl)-carbamic acid 1-(6-iodo-quinazolin-4-yl)-pyrrolidin-3-yl ester]  6.58
20. COc1cc2ncnc(N3CCC(OC(=O)Nc4ccc(C(C)C)cc4)C3)c2cc1OC (centres unmarked) [Compound 2, (4-Isopropyl-phenyl)-carbamic acid 1-(6,7-dimethoxy-quinazolin-4-yl)-pyrrolidin-3-yl ester]  6.61
21. COc1cc2ncnc(N3CCCC3COC(=O)Nc3ccc(C(C)C)cc3)c2cc1OC (centres unmarked) [Compound 9]  6.71
22. COc1cc2ncnc(N3CCC(OC(=O)Nc4ccc(C(C)C)cc4)CC3)c2cc1OC [Compound 1, (4-Isopropyl-phenyl)-carbamic acid 1-(6,7-dimethoxy-quinazolin-4-yl)-piperidin-4-yl ester]  6.74
23. CC(C)c1ccc(NC(=O)OC2CCN(c3ncnc4ccc(C#CCO)cc34)C2)cc1 (centres unmarked) [Compound 14, (4-Isopropyl-phenyl)-carbamic acid 1-[6-(3-hydroxy-prop-1-ynyl)-quinazolin-4-yl]-pyrrolidin-3-yl ester]  6.87
24. CCN(CC)CC#Cc1ccc2ncnc(N3CCC(OC(=O)Nc4ccc(C(C)C)cc4)C3)c2c1 (centres unmarked) [Compound 17, (4-Isopropyl-phenyl)-3-carbamic acid 1-[6-(3-diethylamino-prop-1-ynyl)-quinazolin-4-yl]-pyrrolidin-3-yl ester]  6.91
25. COc1cc2ncnc(N3CCCC(COC(=O)Nc4ccc(C(C)C)cc4)C3)c2cc1OC (centres unmarked) [Compound 4]  7.07
26. COc1cc2ncnc(N3CCC(NC(=O)Cc4ccc(C(C)C)cc4)CC3)c2cc1OC [Compound 21, N-[1-(6,7-Dimethoxy-quinazolin-4-yl)-piperidin-4-yl]-2-(4-isopropyl-phenyl)-acetamide]  7.11
27. COc1cc2ncnc(N3CCC(OC(=O)Nc4ccc(OC5CCC5)nc4)C3)c2cc1OC (centres unmarked) [Compound 12, (6-Cyclobutoxy-pyridin-3-yl)-carbamic acid 1-(6,7-dimethoxy-quinazolin-4-yl)-pyrrolidin-3-yl ester]  7.19
28. COc1cc2ncnc(N3CCC(CC(=O)Nc4ccc(C(C)C)cc4)C3)c2cc1OC (centres unmarked) [Compound 6, 2-[11-(6,7-Dimethoxy-quinazolin-4-yl)-pyrrolidin-3-yl]-N-(4-isopropyl-phenyl)-acetamide]  8.10
29. COc1cc2ncnc(N3CCC(CC(=O)Nc4ccc(C(C)C)cc4)CC3)c2cc1OC [Compound 5, 2-[1-(6,7-Dimethoxy-quinazolin-4-yl)-piperidin-4-yl]-N-(4-isopropyl-phenyl)-acetamide]  8.15

— US20060281771A1, “SYNERGISTIC MODULATION OF FLT3 KINASE USING AMINOQUINOLINE AND AMINOQUINAZOLINE KINASE MODULATORS” (priority 2005, published 2006)
